Experiments:
[1] = xn = mol fraction of the nth substance listed; details: 100 kPa, Liquid, Vibrating tube method
[2] = molar heat capacity at constant pressure; xn = mol fraction of the nth substance listed; details: 100 kPa, Liquid, Extra sensitive DSC

Cc1ccc(C(C)C)cc1 [1-(1-methylethyl)-4-methylbenzene] + CCCO
Details | mass density, 298.15 K [kg/m3] | mass density, 308.15 K [kg/m3] | mass density, 318.15 K [kg/m3] | mass density, 328.15 K [kg/m3] | molar heat capacity at constant pressure, 298.8 K [J/K/mol] | molar heat capacity at constant pressure, 308.7 K [J/K/mol] | molar heat capacity at constant pressure, 318.6 K [J/K/mol] | molar heat capacity at constant pressure, 328.5 K [J/K/mol]
[1], x1 = 0.0499 | 804.92 | 796.73 | 788.38 | 779.8 | – | – | – | –
[1], x1 = 0.1007 | 809.8 | 801.54 | 793.11 | 784.46 | – | – | – | –
[1], x1 = 0.2029 | 818.12 | 809.76 | 801.22 | 792.47 | – | – | – | –
[1], x1 = 0.3021 | 824.8 | 816.37 | 807.78 | 798.98 | – | – | – | –
[1], x1 = 0.4032 | 830.42 | 821.98 | 813.38 | 804.59 | – | – | – | –
[1], x1 = 0.5045 | 835.28 | 826.83 | 818.25 | 809.51 | – | – | – | –
[1], x1 = 0.6044 | 839.47 | 831.05 | 822.51 | 813.82 | – | – | – | –
[1], x1 = 0.6974 | 842.95 | 834.57 | 826.09 | 817.49 | – | – | – | –
[1], x1 = 0.8035 | 846.57 | 838.26 | 829.87 | 821.37 | – | – | – | –
[1], x1 = 0.8989 | 849.61 | 841.39 | 833.1 | 824.75 | – | – | – | –
[1], x1 = 0.9508 | 851.22 | 843.07 | 834.88 | 826.65 | – | – | – | –
[1], x1 = 1 | 852.99 | 844.94 | 836.86 | 828.75 | – | – | – | –
[2], x1 = 0.0499 | – | – | – | – | 151.2 | 158.5 | 165.9 | 173.4
[2], x1 = 0.1007 | – | – | – | – | 159.6 | 166.5 | 173.5 | 180.7
[2], x1 = 0.2029 | – | – | – | – | 174.5 | 182.2 | 188.4 | 195.4
[2], x1 = 0.3021 | – | – | – | – | 186.9 | 194 | 201.2 | 208.3
[2], x1 = 0.4032 | – | – | – | – | 198.6 | 206.1 | 213.2 | 220.7
[2], x1 = 0.5045 | – | – | – | – | 210.6 | 217.2 | 223.9 | 231.2
[2], x1 = 0.6044 | – | – | – | – | 221 | 227.2 | 233.3 | 240.2
[2], x1 = 0.6974 | – | – | – | – | 229.1 | 235 | 240.8 | 246.8
[2], x1 = 0.8035 | – | – | – | – | 237.6 | 242.8 | 248.1 | 253.4
[2], x1 = 0.8989 | – | – | – | – | 242.2 | 246.2 | 250.4 | 254.5
[2], x1 = 0.9508 | – | – | – | – | 242.4 | 245.3 | 248.8 | 252.6
[2], x1 = 1 | – | – | – | – | 240.9 | 244.8 | 249.4 | 254.6
